Results as given in patent publication US9796711B2, “Substituted pyrazolo[3,4-b]pyridin-6-carboxylic acids and method of use” (AbbVie S.àr.l., priority 2015, dated 2017).

Columns and labels:
ΔF508-CFTR [1] = target: T1, ΔF508-CFTR (Homo sapiens, UniProt P13569, DEL508-508); experiment: CFTR cell surface levels using HRP-tagged ΔF508-CFTR expressing CFBE cells, in the presence of a co-corrector; assay type: cell-based; conditions: HRP-tagged ΔF508-CFTR expressing CFBE cells, in the presence of 3 μM co-corrector; for EC50: read-out: EC50
T1 construct: host or cells: CFBE41o-, doxycycline-inducible
Procedure, shortened: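 Cells were seeded with 0.5 μg/mL doxycycline and held 68 h at 37 °C. Test compounds plus 3 μM co-corrector (final 0.1% DMSO) were then added for 20 h at 33 °C. Washed cells received HRP substrate, and luminescence was normalized between DMSO and 3 μM co-corrector controls.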

ΔF508-CFTR [2] = target: T1, ΔF508-CFTR; experiment: CFTR cell surface levels using HRP-tagged ΔF508-CFTR expressing CFBE cells, intrinsic corrector capacity; assay type: cell-based; conditions: 20 hours at 33° C.; for EC50: read-out: EC50
Source text: Measuring CFTR Cell Surface Levels Using HRP-Tagged AF508-CFTR Expressing CFBE Cells
The HRP-tagged AF508-CFTR cell assay measures the expression of CFTR-ΔF508 at the plasma membrane. CFTR-ΔF508 has a folding defect leading to absence of protein at the plasma membrane. This assay is used to evaluate the capacity of compounds to increase the expression of CFTR-ΔF508 at the plasma membrane. The CFTR-ΔF508 is tagged with HRP (horse radish peroxidase enzyme) within the ECL4 (Extracellular loop 4) of CFTR (Phuan, P.-W. et al. Synergy-based small-molecule screen using a human lung epithelial cell line yields AF508-CFTR correctors that augment VX-809 maximal efficacy. Mol. Pharmacol. 86, 42-51 (2014)). When HRP-tagged AF508-CFTR is present at the plasma membrane, the HRP enzyme activity can be measured. The amount of CFTR-ΔF508 that can be rescued to the plasma membrane is correlated with the amount of functional enzyme that can be measured.
There are several ways to measure the capacity of compounds to rescue CFTR-ΔF508 to the plasma membrane; either compounds are evaluated on their own and the impact on plasma membrane levels is measured or compounds are evaluated in combination with a co-corrector, i.e. a compound that rescues CFTR-ΔF508 to the plasma membrane but rescue can be enhanced by addition of compounds due to a complementary mode of action.
Activity of Compounds for their Intrinsic Corrector Capacity:
For this purpose doxycycline-inducible AF508-CFTR-HRP expressing CFBE4lo-cells (obtained from Gergely Lukacs, McGill University) were maintained in MEM (Gibco; 31095) supplemented with 10% fetal bovine serum (Hyclone; SV30160.03) under puromycin (3 μg/mL) and G418 selection (0.2 mg/mL). For compound testing, cells were seeded at 4000 cells/well in white 384-well plates (Greiner; 781080) in 50 μL medium containing 0.5 μg/mL doxycycline and incubated for 68 hours at 37° C., 5% CO2. On day four, 10 μL test compounds diluted in PBS were added to the plates at a final DMSO concentration of 0.1%. All compound plates contained negative controls (DMSO) and positive controls (3 μM corrector, 3-[(2R,4R)-4-({[1-(2,2-difluoro-1,3-benzodioxol-5-yl)cyclopropyl]carbonyl}amino)-7-methoxy-3,4-dihydro-2H-chromen-2-yl]benzoic acid). Cell plates were incubated at 33° C., 5% CO2 for 20 hours. On day five, the cells were washed five times with phosphate-buffered saline, and HRP activity was assayed by the addition of 50 μL/well of HRP substrate (SuperSignal™ West Pico Chemiluminescent Substrate, Thermo Scientific; 34080). After incubation for 15 minutes in the dark, chemiluminescence was measured using a plate reader (EnVision®, Perkin Elmer). Raw data were normalized to percentage activity values using the equation: 100×(Sample−Negative control)/(Positive control−Negative Control).

[3] = HRP-tagged ΔF508-CFTR CFBE41o- cells, compounds alone (intrinsic corrector capacity), positive control 3 μM corrector
[4] = HRP-tagged ΔF508-CFTR CFBE41o- cells, compounds alone (intrinsic corrector capacity)
[5] = HRP-tagged ΔF508-CFTR CFBE cells, compound alone (intrinsic corrector capacity)

T1 sequence (P13569 with tags, fused parts or gaps DEL508-508): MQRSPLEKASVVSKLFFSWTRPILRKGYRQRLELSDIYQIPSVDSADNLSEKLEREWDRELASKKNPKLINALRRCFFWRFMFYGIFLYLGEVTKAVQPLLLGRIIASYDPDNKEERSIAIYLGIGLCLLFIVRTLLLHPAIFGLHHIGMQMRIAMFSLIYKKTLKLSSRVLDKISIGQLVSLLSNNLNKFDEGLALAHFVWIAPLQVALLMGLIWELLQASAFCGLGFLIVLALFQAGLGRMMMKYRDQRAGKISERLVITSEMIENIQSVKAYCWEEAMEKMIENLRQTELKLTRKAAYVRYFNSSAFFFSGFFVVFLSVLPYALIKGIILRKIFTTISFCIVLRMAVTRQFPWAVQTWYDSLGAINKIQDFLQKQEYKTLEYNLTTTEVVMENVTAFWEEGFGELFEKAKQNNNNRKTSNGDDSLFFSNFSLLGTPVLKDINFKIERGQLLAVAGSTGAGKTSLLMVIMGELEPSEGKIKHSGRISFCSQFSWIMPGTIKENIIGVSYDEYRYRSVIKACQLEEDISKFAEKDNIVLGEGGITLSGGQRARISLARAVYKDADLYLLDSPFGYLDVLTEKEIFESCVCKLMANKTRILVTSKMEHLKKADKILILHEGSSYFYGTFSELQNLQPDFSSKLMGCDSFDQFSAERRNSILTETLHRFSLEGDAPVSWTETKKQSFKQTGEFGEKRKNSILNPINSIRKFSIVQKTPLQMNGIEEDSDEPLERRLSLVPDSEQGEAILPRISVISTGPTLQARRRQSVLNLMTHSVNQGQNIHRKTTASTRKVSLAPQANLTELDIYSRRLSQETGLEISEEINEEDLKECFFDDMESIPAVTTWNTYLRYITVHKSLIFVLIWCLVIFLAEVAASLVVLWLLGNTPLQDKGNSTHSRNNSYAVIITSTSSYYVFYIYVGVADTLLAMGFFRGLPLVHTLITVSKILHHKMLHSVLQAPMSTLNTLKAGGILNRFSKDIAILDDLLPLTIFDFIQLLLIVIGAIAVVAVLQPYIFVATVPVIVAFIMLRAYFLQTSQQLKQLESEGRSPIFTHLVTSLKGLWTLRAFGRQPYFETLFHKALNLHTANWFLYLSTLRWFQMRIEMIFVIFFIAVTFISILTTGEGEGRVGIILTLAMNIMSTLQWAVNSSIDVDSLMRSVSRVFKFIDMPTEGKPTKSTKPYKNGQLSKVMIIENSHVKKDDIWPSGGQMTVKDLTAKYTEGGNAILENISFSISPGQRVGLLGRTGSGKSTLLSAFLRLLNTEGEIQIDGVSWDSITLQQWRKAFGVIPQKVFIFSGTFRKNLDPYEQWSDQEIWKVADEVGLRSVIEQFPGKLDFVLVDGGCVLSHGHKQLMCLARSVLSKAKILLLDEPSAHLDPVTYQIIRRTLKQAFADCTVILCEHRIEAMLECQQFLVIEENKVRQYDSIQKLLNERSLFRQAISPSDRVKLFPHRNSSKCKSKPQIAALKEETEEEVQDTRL

For CC(C)c1nn([C@@H]2CCC[C@@H](O)C2)c2nc(C(=O)O)cc(-c3ccc(N4CCOCC4)cc3)c12 (racemic) [compound 194, rac-1-[(1R,3R)-3-hydroxycyclohexyl]-4-[4-(morpholin-4-yl)phenyl]-3-(propan-2-yl)-1H-pyrazolo[3,4-b]pyridine-6-carboxylic acid], the “% Activation” value (ΔF508-CFTR [1]) was 233.9%, the EC50 (ΔF508-CFTR [1]) was 1.25 µM and the “% Activation” value (ΔF508-CFTR [2]; [3]) was 86.36%. The EC50 (ΔF508-CFTR [2]; [4]) was 1.71 µM.

In the case of CC(C)c1nn([C@@H]2CCC[C@H](O)C2)c2nc(C(=O)O)cc(-c3ccc(N4CCOCC4)cc3)c12 (racemic) [compound 195, rac-1-[(1R,3S)-3-hydroxycyclohexyl]-4-[4-(morpholin-4-yl)phenyl]-3-(propan-2-yl)-1H-pyrazolo[3,4-b]pyridine-6-carboxylic acid], the “% Activation” value (ΔF508-CFTR [1]) is reported as 174.9%, the EC50 (ΔF508-CFTR [1]) is reported as 3.34 µM and the “% Activation” value (ΔF508-CFTR [2]; [3]) is reported as 27.46%. The EC50 (ΔF508-CFTR [2]; [4]) was greater than 10 µM.

In the case of Cc1nn(-c2ccc(F)c(F)c2)c2nc(C(=O)O)cc(-c3ccc(N4CCOCC4)cc3)c12 [compound 37, 1-(3,4-difluorophenyl)-3-methyl-4-[4-(morpholin-4-yl)phenyl]-1H-pyrazolo[3,4-b]pyridine-6-carboxylic acid], the “% Activation” value (ΔF508-CFTR [2]; [3]) is reported as 112.9% and the EC50 (ΔF508-CFTR [2]; [4]) is reported as 1.11 µM.

In the case of Cc1nn(-c2cccc(S(C)(=O)=O)c2)c2nc(C(=O)O)cc(-c3ccc(N4CCOCC4)cc3)c12 [compound 38, 1-[3-(methanesulfonyl)phenyl]-3-methyl-4-[4-(morpholin-4-yl)phenyl]-1H-pyrazolo[3,4-b]pyridine-6-carboxylic acid], the “% Activation” value (ΔF508-CFTR [2]; [3]) is reported as 23.86% and the EC50 (ΔF508-CFTR [2]; [4]) is reported as greater than 10 µM.

For Cc1nn(C2CCN(C)CC2)c2nc(C(=O)O)cc(-c3ccc(N4CCOCC4)cc3)c12 [compound 39, 3-methyl-1-(1-methylpiperidin-4-yl)-4-[4-(morpholin-4-yl)phenyl]-1H-pyrazolo[3,4-b]pyridine-6-carboxylic acid], the “% Activation” value (ΔF508-CFTR [2]; [3]) was −2.469% and the EC50 (ΔF508-CFTR [2]; [4]) was greater than 10 µM.

Cc1c(C(=O)O)nc2c(c(C)nn2-c2ccccc2)c1-c1ccc(N2CCOCC2)cc1 [compound 42, 3,5-dimethyl-4-[4-(morpholin-4-yl)phenyl]-1-phenyl-1H-pyrazolo[3,4-b]pyridine-6-carboxylic acid] was tested, and the “% Activation” value (ΔF508-CFTR [2]; [3]) was 74.83% and the EC50 (ΔF508-CFTR [2]; [4]) was 3.34 µM.

Cc1nn(-c2cc(Cl)cc(Cl)c2)c2nc(C(=O)O)cc(-c3ccc(N4CCOCC4)cc3)c12 [compound 44, 1-(3,5-dichlorophenyl)-3-methyl-4-[4-(morpholin-4-yl)phenyl]-1H-pyrazolo[3,4-b]pyridine-6-carboxylic acid] was tested, and the “% Activation” value (ΔF508-CFTR [2]; [3]) was 117.2% and the EC50 (ΔF508-CFTR [2]; [4]) was 2.2 µM.

In the case of Cc1nn(-c2cccc(S(N)(=O)=O)c2)c2nc(C(=O)O)cc(-c3ccc(N4CCOCC4)cc3)c12 [compound 45, 3-methyl-4-[4-(morpholin-4-yl)phenyl]-1-(3-sulfamoylphenyl)-1H-pyrazolo[3,4-b]pyridine-6-carboxylic acid], the “% Activation” value (ΔF508-CFTR [2]; [3]) is reported as 5.851% and the EC50 (ΔF508-CFTR [2]; [4]) is reported as greater than 10 µM.

With Cc1nn(-c2cnn(C)c2)c2nc(C(=O)O)cc(-c3ccc(N4CCOCC4)cc3)c12 [compound 46, 3-methyl-1-(1-methyl-1H-pyrazol-4-yl)-4-[4-(morpholin-4-yl)phenyl]-1H-pyrazolo[3,4-b]pyridine-6-carboxylic acid] the “% Activation” value (ΔF508-CFTR [2]; [3]) was 15.23% and the EC50 (ΔF508-CFTR [2]; [4]) was greater than 10 µM.

C=C(C)c1nn(-c2ccccc2)c2nc(C(=O)O)cc(-c3ccc(N4CCOCC4)cc3)c12 [compound 48, 4-[4-(morpholin-4-yl)phenyl]-1-phenyl-3-(prop-1-en-2-yl)-1H-pyrazolo[3,4-b]pyridine-6-carboxylic acid] was tested, and the “% Activation” value (ΔF508-CFTR [2]; [3]) was 163.7% and the EC50 (ΔF508-CFTR [2]; [4]) was 0.989 µM.

In the case of CC(C)c1nn(-c2cccc(C#N)c2)c2nc(C(=O)O)cc(-c3ccc(N4CCOCC4)cc3)c12 [compound 49, 1-(3-cyanophenyl)-4-[4-(morpholin-4-yl)phenyl]-3-(propan-2-yl)-1H-pyrazolo[3,4-b]pyridine-6-carboxylic acid], the “% Activation” value (ΔF508-CFTR [2]; [3]) is reported as 107% and the EC50 (ΔF508-CFTR [2]; [4]) is reported as 1.11 µM.

For COc1cc(-n2nc(C)c3c(-c4ccc(N5CCOCC5)cc4)cc(C(=O)O)nc32)ccn1 [compound 51, 1-(2-methoxypyridin-4-yl)-3-methyl-4-[4-(morpholin-4-yl)phenyl]-1H-pyrazolo[3,4-b]pyridine-6-carboxylic acid], the “% Activation” value (ΔF508-CFTR [2]; [3]) was 41.22% and the EC50 (ΔF508-CFTR [2]; [4]) was 1.18 µM.

For COc1cc(F)cc(-n2nc(C)c3c(-c4ccc(N5CCOCC5)cc4)cc(C(=O)O)nc32)c1 [compound 52, 1-(3-fluoro-5-methoxyphenyl)-3-methyl-4-[4-(morpholin-4-yl)phenyl]-1H-pyrazolo[3,4-b]pyridine-6-carboxylic acid], the “% Activation” value (ΔF508-CFTR [2]; [3]) was 87.35% and the EC50 (ΔF508-CFTR [2]; [4]) was 2.68 µM.

Cc1nn(-c2ccccc2)c2nc(C(=O)O)cc(-c3ccc(N4CCN(S(C)(=O)=O)CC4)cc3)c12 [compound 53, 4-{4-[4-(methanesulfonyl)piperazin-1-yl]phenyl}-3-methyl-1-phenyl-1H-pyrazolo[3,4-b]pyridine-6-carboxylic acid] was tested, and the “% Activation” value (ΔF508-CFTR [2]; [3]) was 72.97% and the EC50 (ΔF508-CFTR [2]; [4]) was 3.34 µM.

For CNC(=O)c1nn(-c2ccccc2)c2nc(C(=O)O)cc(-c3ccc(N4CCOCC4)cc3)c12 [compound 55, 3-(methylcarbamoyl)-4-[4-(morpholin-4-yl)phenyl]-1-phenyl-1H-pyrazolo[3,4-b]pyridine-6-carboxylic acid], the “% Activation” value (ΔF508-CFTR [2]; [3]) was 0.088% and the EC50 (ΔF508-CFTR [2]; [4]) was greater than 10 µM.

With CC(C)(CO)c1nn(-c2ccccc2)c2nc(C(=O)O)cc(-c3ccc(N4CCOCC4)cc3)c12 [compound 56, 3-(1-hydroxy-2-methylpropan-2-yl)-4-[4-(morpholin-4-yl)phenyl]-1-phenyl-1H-pyrazolo[3,4-b]pyridine-6-carboxylic acid] the “% Activation” value (ΔF508-CFTR [2]; [3]) was 53.1% and the EC50 (ΔF508-CFTR [2]; [4]) was 3.34 µM.

Cc1nn(-c2ccnc(F)c2)c2nc(C(=O)O)cc(-c3ccc(N4CCOCC4)cc3)c12 [compound 57, 1-(2-fluoropyridin-4-yl)-3-methyl-4-[4-(morpholin-4-yl)phenyl]-1H-pyrazolo[3,4-b]pyridine-6-carboxylic acid] was tested, and the “% Activation” value (ΔF508-CFTR [2]; [3]) was 68.57% and the EC50 (ΔF508-CFTR [2]; [4]) was 3.34 µM.

Cc1nn(-c2cc[nH]c(=O)c2)c2nc(C(=O)O)cc(-c3ccc(N4CCOCC4)cc3)c12 [compound 58, 3-methyl-4-[4-(morpholin-4-yl)phenyl]-1-(2-oxo-1,2-dihydropyridin-4-yl)-1H-pyrazolo[3,4-b]pyridine-6-carboxylic acid] was tested, and the “% Activation” value (ΔF508-CFTR [2]; [3]) was 4.754% and the EC50 (ΔF508-CFTR [2]; [4]) was greater than 10 µM.

In the case of Cc1nn(-c2cccc(C(N)=O)c2)c2nc(C(=O)O)cc(-c3ccc(N4CCOCC4)cc3)c12 [compound 59, 1-(3-carbamoylphenyl)-3-methyl-4-[4-(morpholin-4-yl)phenyl]-1H-pyrazolo[3,4-b]pyridine-6-carboxylic acid], the “% Activation” value (ΔF508-CFTR [2]; [3]) is reported as 13.69% and the EC50 (ΔF508-CFTR [2]; [4]) is reported as greater than 10 µM.

In the case of CC(C)COC(=O)N1CCN(c2cc(C(=O)O)nc3c2c(C2CCC2)nn3-c2ccc(F)cc2)CC1 [compound 930, 3-cyclobutyl-1-(4-fluorophenyl)-4-{4-[(2-methylpropoxy)carbonyl]piperazin-1-yl}-1H-pyrazolo[3,4-b]pyridine-6-carboxylic acid], the “% Activation” value (ΔF508-CFTR [2]; [5]) is reported as 434.3% and the EC50 (ΔF508-CFTR [2]; [5]) is reported as 0.24 µM.
